From patent US20230095912A1, “Composition and Methods for Selective Degradation of Engineered Proteins” (Celgene Corporation, priority 2021, published 2023)
Read-outs that look alike come from different tables or passages of the source.

What was measured:
[1] = system: CAR tagged with ZNF2_3 containing a G6N mutation; test: Compound A titration on Jurkat cells with CAR tagged with ZNF2_3 G6N mutant degron; assay type: cell-based, human; conditions: any dose
Text: The IKZF1 degrons were fused to the C-terminus. See SEQ ID NOs: 53-57. […] This configuration was therefore selected for further testing.

[2] = system: WT IKZF1 ZNF2_3-tagged CARs; test: Erk phosphorylation (pErk) western blot after CAR degradation in Jurkat cells; assay type: cell-based, human; conditions: 1 mM pretreatment 12 hours, co-culture with CD19-expressing K562 30 minutes
Procedure: Abrogation of signaling with CAR degradation was assessed by measuring activation of the downstream MAPK signaling pathway. Jurkat cells were transduced with untagged, WT degron-tagged, or G6N degron-tagged CAR as described above.

[3] = system: Aurora A; conditions: 1 μM, 16 hours, knock-in Jurkat cells
Text: (§1) The ability to knock degron tags in-frame into genomic loci to allow for compound-mediated modulation of endogenous protein levels was explored. Adeno-associated viral vectors were designed to deliver IKZF1 ZNF2_3-V5 tag-T2A-muThy1.1 tags to be knocked in-frame into the AURA (FIG. […]) or TOX locus (FIG. 20C-20D) in Jurkat cells in both the N- and C-terminal orientations. Jurkats were then electroporated with Cas9/guide RNA ribonucleoproteins. […] Cells were then pelleted, lysed, run on a denaturing protein gel, transferred to a membrane, probed with antibody and visualized with film.

[4] = system: tagged TOX; conditions: 1 μM, 16 hours, knock-in Jurkat cells
Text: as §1

[5] = molecular target: T1, ePL-tagged GSPT1 (Homo sapiens, UniProt P15170+Q96SW2); test: ePL-tagged substrate degradation in DF15 multiple myeloma cells; assay type: cell-based; conditions: for DC50: GSPT1, DF15 cells, 20 hours
T1 construct: expressed in transfected cells
Procedure: (§2) DF15 multiple myeloma cells stably expressing ePL-tagged Aiolos, Ikaros, or GSPT1, and MDS-L cells stably expressing ePL-tagged CK1a were generated via lentiviral infection with pLOC-ePL-Aiolos (or Ikaros, GSPT1, or CK1a). […] Compounds were dispensed by an acoustic dispenser (ATS acoustic transfer system from EDC Biosystems) into a 384-well plate in a 10-point dose response curve using 3-fold dilutions starting at 10 μM and going down to […]. Then, 25 μL of media (RPMI-1640+10% heat inactivated FBS+25 mM Hepes+1 mM Na pyruvate+1× NEAA+1×Pen Strep Glutamine) containing 5000 of DF15 or MSD-L cells was dispensed per well. Assay plates were incubated at 37° C. with 5% CO2 for 4 hours except 20 hours for GSPT1. After incubation, 25 μL of the InCELL Hunter detection reagent working solution (DiscoverX, catalogue no. 96-0002, Fremont, Calif.) was added to each well and incubated at room temperature for 60 min protected from light. After 60 min, luminescence was read on an Envision or PHERAstar luminescence reader.
(§3) To determine the EC50 value of a compound for the degradation of a given substrate (concentration of compound that achieves half the maximum degradation observed), a four-parameter logistic model (sigmoidal dose—response model) (FIT=(A+{(B−A)/1+[(C/x)D]})) where C is the inflection point (EC50), D is the […], and A and B are the low and high limits of the fit, respectively) was used. All substrate degradation curves were processed and evaluated using ActivityBase (IDBS), a data analysis software package. Ymin is minimum percent protein remaining.

[6] = molecular target: T2, ePL-tagged Ikaros (Homo sapiens, UniProt Q13422+Q96SW2); test: as above; assay type: cell-based; conditions: for DC50: Ikaros, DF15 cells, 4 hours
T2 construct: expressed in transfected cells
Procedure: as §2, §3

[7] = molecular target: T3, ePL-tagged CK1a (Homo sapiens, UniProt P48729+Q96SW2); test: ePL-tagged substrate degradation in MDS-L cells; assay type: cell-based; conditions: for DC50: CK1a, MDS-L cells, 4 hours
T3 construct: expressed in transfected cells
Procedure: as §2, §3

[8] = molecular target: IKZF1 ZNF2-tagged CD19 CAR (Homo sapiens, UniProt Q13422+Q96SW2); conditions: jurkat, 1440 min
[9] = molecular target: CAR tagged with WT ZNF2_3 (Homo sapiens, UniProt Q13422+Q96SW2); conditions: higher Compound A concentrations
Procedure: The IKZF1-ZNF2 degron was further modified to promote improved CAR degradation. Untagged CAR and CAR tagged with the original IKZF1-ZNF2 degrons were tested alongside alternate orientations and combinations of IKZF1 ZNF1, ZNF2, and ZNF3 (FIG. 5A). Each CAR included a CD28 transmembrane domain, a 4-1BB costimulatory domain, and a CD3 (CD3z) signaling domain. The IKZF1 degrons were fused to the C-terminus. […] A lentiviral vector encoding untagged CD19 CAR or CAR tagged with various configurations of IKZF1-ZNFs was transduced into the Jurkat cell line. Transduced cells were first co-cultured with a CD19-expressing K562 target cell line at 37° C. for 7.5 hours, and normalized levels of tdTomato reporter were assessed by flow cytometry.

[10] = molecular target: IKZF1 ZNF2_3 tagged CD19 CAR (Homo sapiens, UniProt Q13422+Q96SW2); conditions: 100 nM pre-treatment 48 hours, co-culture with CD19-expressing K562 8 hours
Procedure: Function of IKZF1 ZNF2 tagged CD19 CAR T cells (FIG. 2, ZNF2 amino acid sequence of SEQ ID NO: 15) was evaluated in a reporter assay, in which Jurkat cells have been engineered to express tdTomato when the Nur77 gene, associated with CAR and TCR activation, is actively transcribed (FIG. 3). Lentiviral vectors encoding ZNF-tagged CD19 CAR, untagged CD19 CAR, or an untagged BCMA CAR negative control were transduced into the Jurkat reporter cell line. Transduced cells were then co-cultured with a CD19-expressing K562 target cell line at 37° C. Levels of tdTomato, both in the form of mean fluorescence intensity (MFI) and the overall percent of positive cells, were assessed by flow cytometry every 2 hours for 12 hours.
A lentiviral vector encoding ZNF2_3 tagged or untagged CD19 CAR (see Example 2) was transduced into the reporter cell line. […] Levels of tdTomato in the form of mean fluorescence intensity (MFI) (FIG. 6B) and the overall percent of positive cells, as well as normalized CAR levels (FIG. 6C), were assessed by flow cytometry (FIG. 6A).

[11] = molecular target: T4, CD19 CARs tagged with IKZF1 ZNF2_ZNF3 Q1F (Homo sapiens, UniProt Q13422, Q146F); test: Small-molecule screen: Q1F degron-tagged CD19 CAR levels in Jurkat cells, flow cytometry; assay type: cell-based; conditions: for Ymin (%): minimum percent protein remaining
T4 construct: EC50 (Q1F degron); other: Jurkat cells, 18 hours, CAR levels normalized to no drug; Ymin (Q1F degron); Ymin (%); minimum percent protein remaining; Nluc reporter
Procedure: A set of potential degron-targeting compounds was screened against the Q1F degron, resulting in a set of potent degron/small-molecule pairs. Lentiviral vectors containing CD19 CARs tagged with IKZF1 ZNF2_ZNF3 Q1F Nluc were transduced into Jurkat cells. The CD19 CAR was similar to the CD19 CAR in Example 2, but comprising the ZNF2_ZNF3 Q1F degron (SEQ ID NO: 19). Transduced cells were treated with a titration of each small molecule or no drug and then incubated at 37° C. for 18 hours. Cells were washed and stained with appropriate staining reagent to measure CAR levels. The cells were incubated at 4° C. in the staining reagents for 20 mins and then washed 3 times before being read on the flow cytometer. CAR levels were normalized to cells that had not been treated with drug. EC50 and Ymin values were calculated using the resulting titration curve. This identified small molecules that potently degraded the Q1F degron-tagged CARs (Table 1).

[12] = system: ZNF2_3 Q1F tagged CD19 CAR; test: In vivo degradation of degron-tagged CAR in non-tumor bearing NSG mice
Procedure: (§4) The ability to degrade ZNF2_3 Q1F tagged CAR in vivo was evaluated. A lentiviral vector encoding ZNF2_3 Q1F tagged CD19 CAR was transduced into activated primary T cells. Transduced cells were expanded for 10 days in media supplemented with IL2, IL7 and IL15, then frozen.
To determine the ability to degrade degron-tagged CAR in vivo in the absence of tumor, CAR T cells were thawed, rested for 24 hours and adoptively transferred into non-tumor bearing female NSG™ immunodeficient mice at a dose of 2×10^6 cells per animal. After 24 hours, mice were dosed orally with vehicle, 0.85 or 8.5 mg/kg Compound D (FIG. 18B). Blood was drawn 8, 24, 48 and 72 hours later (FIG. 18A), and the proportion of CAR+ T cells, as determined by staining with anti-scFv and anti-CD3 antibodies, was evaluated by flow.

[13] = system: ZNF2_3 Q1F tagged CD19 CAR; test: Raji xenograft model, degron-tagged CAR T down-regulation in NSG mice; assay type: in vivo; conditions: 6.85 mg/kg BID orally on days 0 and 1, Raji tumor
Procedure: as §4
To examine the down-regulation of degron-tagged CAR in vivo in a xenograft cancer model and the impact on CAR T function, female NSG™ mice were injected with 5×10^5 of Raji tumor cells stably expressing renilla luciferase. Six days later CAR T cells were thawed, rested for 24 hours and adoptively transferred into the mice at a dose of 2×10^6 cells per animal. Mice were dosed orally with vehicle or 6.85 mg/kg Compound D BID on days 0 and 1 (FIG. 19A). Blood was drawn and tumor fluorescence measured at D1, D3, and D10 (FIG. 19A), and the proportion of CAR+T cells, as determined by staining with anti-scFv and anti-CD3 antibodies, was evaluated by flow.

[14] = molecular target: T5, ePL-tagged Aiolos (Homo sapiens, UniProt Q96SW2+Q9UKT9); test: ePL-tagged substrate degradation in DF15 multiple myeloma cells; assay type: cell-based; conditions: for DC50: Aiolos, DF15 cells, 4 hours, read-out: EC50 (the source's name)
T5 construct: expressed in transfected cells
Procedure: as §2
(§5) All substrate degradation curves were processed and evaluated using ActivityBase (IDBS), a data analysis software package. Ymin is minimum percent protein remaining.

[15] = molecular target: T6, Helios (Homo sapiens, UniProt Q96SW2+Q9UKS7); test: Helios HiBit degradation in Jurkat cells; assay type: cell-based; conditions: for DC50: Helios, Jurkat/Helios/HiBit cells, 18 hr, read-out: EC50 (the source's name)
T6 construct: endogenous in cells; host or cells: Jurkat/Helios/HiBit cells (CRISPR/Cas9 knock-in)
Procedure: For Helios, a stable Jurkat cell line was engineered using CRISPR/Cas9 to insert an in-frame HiBit tag into the carboxy-terminal reading frame of the IKZF2 gene. Test compounds were transferred to 1536 well plates using an acoustic dispenser, and Jurkat/Helios/HiBit cells in DMEM/10% FCS were plated at 10,000 cells/well in a final volume of 5 ul. Cells were incubated at 37C, 95% RH for 18 hr. Luciferase activity was measured by adding 2 ul/well of Nano-Glo reagent (Promega), incubating at RT for 30 min, and reading luminescence on a microtiter plate reader.
as §5

[16] = system: CD19 CARs tagged with IKZF1 ZNF2_ZNF3 Q1F; test: Small-molecule screen: Q1F degron-tagged CD19 CAR levels in Jurkat cells, flow cytometry; assay type: cell-based, human; conditions: versus Helios, Aiolos, Ikaros, GSPT1, CK1a
[17] = system: IKZF1 ZNF2 Q1F; test: In vitro ubiquitination screen of Ikaros MBP-ZNF2 Q1 mutants; assay type: biochemical, human; conditions: western blot
Text: Structural studies reveal that position 1 of the G-motif is in close proximity to the compound when substrates are bound to cereblon/compound complexes (not shown). Alignment of the G-motif degron sequences of the IKZF family (FIG. 8) and predicted degrons within other C2H2 zinc fingers (FIG. 9) reveal a diverse set of amino acids at this position. Therefore, to identify additional compound:degron pairs, mutations were made in the Q1 position of IKZF1 ZNF2, and potential compounds were screened for activity against these mutants. Plasmids were built containing Ikaros MBP-ZNF2 (aa 141-196) with alternate amino acids at the Q1 position, and an in vitro ubiquitination screen was conducted using various compounds including Compound B (FIG. 10A).

[18] = system: IKZF1 ZNF2_3 Q1F tagged CD19 CAR; test: Jurkat reporter assay (tdTomato), signaling of Q1F-tagged CAR after degradation; assay type: cell-based, human; conditions: 1 mM pre-treatment 12 hours, co-culture with CD19-expressing K562 8 hours
Procedure: A lentiviral vector encoding ZNF2_3 Q1F or Q1F/G6N tagged CD19 CAR was transduced into the reporter cell line. […] Levels of tdTomato in the form of the overall percent of positive cells (FIG. 12A), as well as mean fluorescence intensity (MFI, FIG. 12B) were assessed by flow cytometry. Degradation of CARs containing the ZNF2_3 Q1F degron decreased signaling by around 30% using 1 mM Compound C and by around 75% using Compound B; this relative difference correlates with the depth of degradation seen for each. Further, the reduction in activity depends upon having an intact G-motif, as the G6N mutation prevents inhibition.

[19] = Degron Q1F (from Table 1), read-out: EC50 (the source's name)
[20] = Jurkat assay described in Example 5, read-out: EC50 for the Q1F degron
[21] = Jurkat cells, 18 hours, CAR levels normalized to no drug
[22] = Jurkat cells, 18 hours, CAR levels normalized to no drug, read-out: EC50 (Q1F degron)
[23] = read-out: EC50 (the source's name)

T6 sequence (Q9UKS7 whole entry): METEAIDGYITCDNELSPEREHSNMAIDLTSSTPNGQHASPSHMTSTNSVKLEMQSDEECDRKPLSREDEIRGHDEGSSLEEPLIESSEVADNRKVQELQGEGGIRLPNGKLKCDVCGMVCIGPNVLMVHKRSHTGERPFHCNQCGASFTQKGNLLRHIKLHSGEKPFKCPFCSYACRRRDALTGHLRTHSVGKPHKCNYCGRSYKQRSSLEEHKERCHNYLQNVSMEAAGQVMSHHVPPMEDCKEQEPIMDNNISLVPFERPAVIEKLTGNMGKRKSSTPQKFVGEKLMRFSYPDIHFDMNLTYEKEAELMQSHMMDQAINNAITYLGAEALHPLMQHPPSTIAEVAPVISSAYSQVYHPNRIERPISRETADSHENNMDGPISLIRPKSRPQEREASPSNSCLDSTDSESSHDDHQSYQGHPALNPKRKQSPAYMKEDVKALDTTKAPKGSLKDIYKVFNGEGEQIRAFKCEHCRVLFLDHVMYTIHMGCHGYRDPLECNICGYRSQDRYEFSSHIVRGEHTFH
T6 sequence (Q96SW2 whole entry): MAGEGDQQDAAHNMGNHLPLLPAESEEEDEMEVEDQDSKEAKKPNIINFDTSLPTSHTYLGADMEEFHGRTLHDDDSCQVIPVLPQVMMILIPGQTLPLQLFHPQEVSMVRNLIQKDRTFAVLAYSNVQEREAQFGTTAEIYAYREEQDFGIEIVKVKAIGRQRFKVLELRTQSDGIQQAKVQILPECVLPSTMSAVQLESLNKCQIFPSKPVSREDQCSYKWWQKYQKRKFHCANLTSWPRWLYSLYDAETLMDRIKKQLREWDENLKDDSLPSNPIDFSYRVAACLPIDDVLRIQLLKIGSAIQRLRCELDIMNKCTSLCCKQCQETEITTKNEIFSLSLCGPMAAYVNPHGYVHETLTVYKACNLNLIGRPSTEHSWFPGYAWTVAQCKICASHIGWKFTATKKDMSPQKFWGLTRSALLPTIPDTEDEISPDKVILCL
T6 sequence (Q16531 whole entry partner): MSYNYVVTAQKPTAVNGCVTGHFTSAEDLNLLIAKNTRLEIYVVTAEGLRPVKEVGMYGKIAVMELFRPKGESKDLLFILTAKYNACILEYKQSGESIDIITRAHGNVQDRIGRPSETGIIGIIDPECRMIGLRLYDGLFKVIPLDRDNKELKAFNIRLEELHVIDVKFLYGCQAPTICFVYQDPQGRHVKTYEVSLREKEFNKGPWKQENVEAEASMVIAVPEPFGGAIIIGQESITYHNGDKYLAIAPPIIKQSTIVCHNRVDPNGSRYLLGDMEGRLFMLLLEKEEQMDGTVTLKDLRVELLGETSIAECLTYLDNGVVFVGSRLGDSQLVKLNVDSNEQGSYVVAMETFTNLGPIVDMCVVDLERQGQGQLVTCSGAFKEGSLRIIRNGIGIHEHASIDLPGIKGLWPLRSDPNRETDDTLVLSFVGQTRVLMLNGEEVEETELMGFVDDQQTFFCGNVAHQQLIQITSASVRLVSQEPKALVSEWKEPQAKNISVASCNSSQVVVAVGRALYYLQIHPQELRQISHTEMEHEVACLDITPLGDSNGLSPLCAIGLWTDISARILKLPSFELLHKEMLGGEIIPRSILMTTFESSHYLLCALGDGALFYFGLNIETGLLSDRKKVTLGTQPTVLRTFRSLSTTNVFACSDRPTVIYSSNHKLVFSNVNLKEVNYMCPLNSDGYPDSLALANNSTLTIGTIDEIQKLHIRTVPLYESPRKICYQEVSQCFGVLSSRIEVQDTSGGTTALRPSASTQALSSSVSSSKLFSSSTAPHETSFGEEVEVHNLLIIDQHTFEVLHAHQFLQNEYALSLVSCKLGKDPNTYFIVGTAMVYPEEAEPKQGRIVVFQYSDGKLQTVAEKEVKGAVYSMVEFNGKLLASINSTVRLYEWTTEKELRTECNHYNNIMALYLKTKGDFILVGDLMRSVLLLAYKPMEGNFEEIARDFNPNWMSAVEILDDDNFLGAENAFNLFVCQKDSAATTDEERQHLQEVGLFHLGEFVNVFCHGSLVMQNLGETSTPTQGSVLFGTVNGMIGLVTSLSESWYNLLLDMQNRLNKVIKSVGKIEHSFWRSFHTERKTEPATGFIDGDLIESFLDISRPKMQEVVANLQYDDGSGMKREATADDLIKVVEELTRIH
T5 sequence (Q9UKT9 whole entry): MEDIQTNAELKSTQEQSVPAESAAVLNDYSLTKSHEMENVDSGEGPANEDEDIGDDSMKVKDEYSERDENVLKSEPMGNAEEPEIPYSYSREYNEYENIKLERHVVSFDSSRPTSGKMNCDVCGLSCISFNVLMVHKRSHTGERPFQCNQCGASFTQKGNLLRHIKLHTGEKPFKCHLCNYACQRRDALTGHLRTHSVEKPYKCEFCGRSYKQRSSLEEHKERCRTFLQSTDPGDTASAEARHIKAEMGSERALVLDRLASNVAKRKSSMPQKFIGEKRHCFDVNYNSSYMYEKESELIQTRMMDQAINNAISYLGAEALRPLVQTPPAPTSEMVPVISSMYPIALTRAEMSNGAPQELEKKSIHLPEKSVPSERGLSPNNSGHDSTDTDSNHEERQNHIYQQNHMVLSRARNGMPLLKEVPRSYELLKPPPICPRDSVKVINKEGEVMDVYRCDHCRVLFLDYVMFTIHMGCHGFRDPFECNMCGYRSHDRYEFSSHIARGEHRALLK
T5 sequence (Q96SW2 whole entry): as the sequence (Q96SW2 whole entry) above
T5 sequence (Q16531 whole entry partner): as the sequence (Q16531 whole entry partner) above
T3 sequence (P48729 whole entry): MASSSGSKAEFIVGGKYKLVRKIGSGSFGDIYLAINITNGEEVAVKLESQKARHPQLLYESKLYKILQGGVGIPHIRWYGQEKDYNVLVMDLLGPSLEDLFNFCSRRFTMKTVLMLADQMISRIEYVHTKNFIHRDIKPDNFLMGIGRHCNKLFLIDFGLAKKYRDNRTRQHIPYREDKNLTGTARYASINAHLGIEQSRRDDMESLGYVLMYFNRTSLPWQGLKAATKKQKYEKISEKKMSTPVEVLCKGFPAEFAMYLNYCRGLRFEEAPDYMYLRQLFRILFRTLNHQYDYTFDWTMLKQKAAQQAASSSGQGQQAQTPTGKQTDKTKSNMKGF
T3 sequence (Q96SW2 whole entry): as the sequence (Q96SW2 whole entry) above
T3 sequence (Q16531 whole entry partner): as the sequence (Q16531 whole entry partner) above
T2 sequence (Q13422 whole entry): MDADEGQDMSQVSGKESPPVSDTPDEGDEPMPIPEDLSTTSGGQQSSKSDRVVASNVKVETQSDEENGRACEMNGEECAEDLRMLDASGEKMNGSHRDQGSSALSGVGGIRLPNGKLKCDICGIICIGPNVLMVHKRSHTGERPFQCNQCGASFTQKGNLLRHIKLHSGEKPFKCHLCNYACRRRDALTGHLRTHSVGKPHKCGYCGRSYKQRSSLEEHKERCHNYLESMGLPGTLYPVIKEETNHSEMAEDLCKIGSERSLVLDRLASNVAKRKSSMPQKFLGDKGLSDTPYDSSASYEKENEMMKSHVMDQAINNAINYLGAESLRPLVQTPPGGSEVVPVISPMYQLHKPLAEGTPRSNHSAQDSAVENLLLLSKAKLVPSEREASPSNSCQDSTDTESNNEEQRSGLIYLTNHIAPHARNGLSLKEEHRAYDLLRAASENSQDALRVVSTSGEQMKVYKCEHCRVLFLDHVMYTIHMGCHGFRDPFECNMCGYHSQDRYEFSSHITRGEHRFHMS
T2 sequence (Q96SW2 whole entry): as the sequence (Q96SW2 whole entry) above
T2 sequence (Q16531 whole entry partner): as the sequence (Q16531 whole entry partner) above
T1 sequence (P15170 whole entry): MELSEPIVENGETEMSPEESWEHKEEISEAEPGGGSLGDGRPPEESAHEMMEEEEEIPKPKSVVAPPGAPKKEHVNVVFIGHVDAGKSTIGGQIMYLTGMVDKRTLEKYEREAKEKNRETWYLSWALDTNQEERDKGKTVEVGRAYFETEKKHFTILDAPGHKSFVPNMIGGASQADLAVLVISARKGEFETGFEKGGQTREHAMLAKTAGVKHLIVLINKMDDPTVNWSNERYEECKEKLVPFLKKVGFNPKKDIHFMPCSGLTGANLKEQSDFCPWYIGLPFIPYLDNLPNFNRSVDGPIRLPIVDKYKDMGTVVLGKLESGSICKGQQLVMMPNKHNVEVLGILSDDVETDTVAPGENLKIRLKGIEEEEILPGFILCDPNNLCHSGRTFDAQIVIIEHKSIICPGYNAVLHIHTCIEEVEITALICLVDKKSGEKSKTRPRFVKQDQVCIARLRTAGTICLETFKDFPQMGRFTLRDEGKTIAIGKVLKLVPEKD
T1 sequence (Q96SW2 whole entry): as the sequence (Q96SW2 whole entry) above
T1 sequence (Q16531 whole entry partner): as the sequence (Q16531 whole entry partner) above
T4 sequence (Q13422 whole entry Q146F): as the sequence (Q13422 whole entry) above, with Q146F counted along it
Sequence of IKZF1 ZNF2-tagged CD19 CAR (Q13422 other isoform, or with tags, fused parts or gaps): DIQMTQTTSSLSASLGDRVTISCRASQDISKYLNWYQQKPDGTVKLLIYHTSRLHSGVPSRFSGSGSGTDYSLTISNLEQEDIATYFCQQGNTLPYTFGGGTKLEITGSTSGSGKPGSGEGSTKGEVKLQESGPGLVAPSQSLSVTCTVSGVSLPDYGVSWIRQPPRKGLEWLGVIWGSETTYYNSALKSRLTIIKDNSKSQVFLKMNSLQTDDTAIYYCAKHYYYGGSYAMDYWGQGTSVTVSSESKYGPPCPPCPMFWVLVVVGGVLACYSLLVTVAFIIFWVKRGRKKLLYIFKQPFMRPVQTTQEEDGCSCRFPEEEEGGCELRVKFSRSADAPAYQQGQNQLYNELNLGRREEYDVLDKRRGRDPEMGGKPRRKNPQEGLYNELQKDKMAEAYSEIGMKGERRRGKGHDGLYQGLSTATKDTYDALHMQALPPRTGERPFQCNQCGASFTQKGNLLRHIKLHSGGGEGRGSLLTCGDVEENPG
Sequence of IKZF1 ZNF2-tagged CD19 CAR (Q16531 whole entry, further chain): as the sequence (Q16531 whole entry partner) above
Sequence of IKZF1 ZNF2-tagged CD19 CAR (Q96SW2 whole entry): as the sequence (Q96SW2 whole entry) above

| Structure (SMILES) | Ymin (%) ([11]; Degron Q1F (from Table 1)) | DC50 [11, 19] [nM] | DC50 [11, 20] [nM] | Ymin (Q1F degron) [11, 21] [%] | DC50 [11, 22] [nM] | Ymin (%) [14] [%] | DC50 [14] [nM] | Ymin (%) [5] [%] | DC50 [5, 23] [nM] | Ymin (%) [6] [%] | DC50 [6, 23] [nM] | Ymin (%) [7] [%] | DC50 [7, 23] [nM] | Ymin (%) [15] [%] | degradation of Helios (in words) [15] | DC50 [15] [nM] | other results |
| --- | --- | --- | --- | --- | --- | --- | --- | --- | --- | --- | --- | --- | --- | --- | --- | --- | --- |
| O=C1CCC(N2Cc3c(OCc4ccc(CN5CCN(c6ccc(F)cc6F)CC5)cc4)cccc3C2=O)C(=O)N1 (stereo not drawn) [Compound A] |  |  |  |  |  |  |  |  |  |  |  |  |  |  |  |  | response of G6N mutant tagged CAR [1]: failed to respond; Erk phosphorylation (pErk) [2]: attenuated; Aurora A levels (western blot) [3]: decreased; tagged TOX levels (western blot) [4]: decreased; DC50 ([5]; read-out: EC50): 39 nM; DC50 ([6]; read-out: EC50): 22 nM; degradation of CK1a (in words) [7]: degraded CK1a to a significant extent; DC50 ([7]; read-out: EC50): 190 nM; CAR degradation [8]: ~55%; CAR degradation (WT ZNF2_3 degron) [9]: deep CAR degradation; inhibition of CAR activity [10]: strongly inhibit CAR activity |
| O=C1CCC(N2Cc3cc(C4CCN(Cc5ccc6ncsc6c5)CC4)ccc3C2=O)C(=O)N1 (stereo not drawn) [Compound D, 3-[5-[1-(1,3-benzothiazol-6-ylmethyl)-4-piperidyl]-1-oxo-isoindolin-2-yl]piperidine-2,6-dione] | 4.2 | 0.7 | < 1 | 4.2 | 0.7 | 87 | > 10000 | 96 | > 10000 | 93 | > 10000 | 81 | > 10000 | 24 | some degradation of Helios | 460 | CD3+ CAR+ cells remaining ([12]; 0.85 or 8.5 mg/kg orally (both doses), blood at 8 hours): < 5%; CAR level in vivo ([12]; 0.85 or 8.5 mg/kg orally, 24 hours): remained significantly degraded; CAR expression in vivo ([12]; 48 hours after dosing): substantially restored; expansion and cytolytic function of degron-tagged CAR T cells [13]: decreased expansion and cytolytic function; selectivity for the Q1F degron (in words) [16]: selective for the Q1F degron |
| O=C1CCC(N2Cc3cc(C(=O)N4Cc5cccnc5C4)ccc3C2=O)C(=O)N1 (stereo not drawn) [Compound B, 3-(5-(6,7-dihydro-5H-pyrrolo[3,4-b]pyridine-6-carbonyl)-1-oxoisoindolin-2-yl)piperidine-2,6-dione] | 1.7 | 4.8 | < 5 | 1.7 | 4.8 | 93 | > 10000 | 72 | 54 | 91 | > 10000 | 82 | > 10000 | 65 | some degradation activity against Helios | > 10000 | ubiquitination of IKZF1 ZNF2 Q1F [17]: heavily ubiquitinated; decrease of signaling (tdTomato reporter) [18]: around 75%; degradation of GSPT1 (in words) [5]: some degradation activity against GSPT1 |
